Where a name gives a salt, the structure may show the parent alone.
Tests used:
[1] = tested on: uterine muscle isolated from pregnant rats; test: Spontaneous contractions of uterine muscle isolated from pregnant rats (organ bath); format: cell-based; settings: pregnant rat uterine muscle, mean ± standard error, 10 samples
Description: The experimental operation of this study was as reported by T. Kawarabayashi et al.^1 After each SD-strain rat on Day 21 of pregnancy were exsanguinated to death, the uterus was isolated to prepare up to 8 myometrial strips (about 4 mm×10 mm) in the direction of the longitudinal muscle, with the adhesion to the placenta being avoided.
Each myometrial strip was suspended in an organ bath containing 10 mL of a Locke-Ringer solution at 37° C. (aerated with 95% O2+5% CO2 gas) with a load of about 1.0 g. After the amplitude and frequency of the muscular spontaneous contractions became stable, distilled water was added. Five minutes later, the test, control, or positive control substance was added cumulatively with intervals of 5 minutes. The myometrial contractile force was delivered to a strain pressure amplifier through a force displacement transducer and recorded on a Rectigraph.
Considering the sum of the uterine contraction during 5 minutes after the addition of distilled water as 100%, the response rate to each concentration of the test, control, or positive control substance was calculated from the sum of the uterine contraction after each was added. Variable points (peaks) with amplitude (tension) of 0.2 g or lower were excluded from analysis. Samples showing any of the following events were not used for the study or excluded from analysis.
Microsoft® Excel 2000 (Microsoft Corp.) was used to sum up and analyze data and prepare tables and figures. Using a concentration-response curve obtained for each sample (X axis: log value of the concentration of the drug added, Y axis: response rate), a negative log value (pD2) of the concentration that inhibited the uterine contraction by 50% (EC50) was calculated from a straight line that connects the 2 concentrations above and below 50%, and converted to EC50.

[2] = tested on: uterine muscle isolated from pregnant rats; test: PG F2α-induced contraction of uterine muscle isolated from pregnant rats; format: cell-based, rat; settings: contraction induced with 5 μg/mL of PG F2α, mean ± standard error of 10 samples
Description: (§1) After SD-strain rats on Day 17 of pregnancy were exsanguinated to death, the uterus was isolated to prepare up to 8 myometrial strips (about 4 mm×10 mm) per animal in the direction of the longitudinal muscle while avoiding the adhesion to the placenta. Each strip was suspended in an organ bath containing 10 mL of a modified Locke-Ringer solution at […] (aerated with 95% O2+5% CO2 gas) with a load of about 1.0 g. After the suspended sample became stable for static tension, 5 μg/mL of PG F2α or 1 mU/mL of oxytocin was added to induce contraction. After the sample was allowed to stand for at least 30 minutes to confirm stable rhythmic contraction for frequency and amplitude, the test, control, or positive control substance solution was added cumulatively at intervals of 5 minutes. After the treatment was completed, 1×10^−5 mol/L of forskolin was added to obtain maximal relaxation. The contractile force of the uterine sample was delivered via a force displacement transducer to a strain pressure amplifier and recorded on a Rectigraph.
(§2) Considering the sum of the uterine contraction for 5 minutes before treatment as 100%, the response rate to each concentration of the test, control, or positive control substance solution was calculated from the sum of uterine contraction after treatment for both PG F2α and oxytocin induced contraction. Then, the response rates obtained were used to prepare a concentration-response curve for each sample. The maximum relaxation obtained by adding forskolin was considered as a baseline. Variable points (peaks) with amplitude (tension) of […] or lower were excluded from analysis. Samples showing any of the following events were not used for the study or excluded from analysis.
(§3) Microsoft® Excel 2000 (Microsoft Corp.) was used to sum up and calculate data and prepare tables and figures. Using a concentration-response curve prepared for each sample (X axis: log value of the concentration of the substance added, Y axis: response rate), a negative log value (pEC50) of the concentration that inhibited the uterine contraction by 50% (EC50) was calculated from a straight line connecting the 2 concentrations just above and below 50%, and then converted to EC50 (unit: mol/L).

[3] = tested on: uterine muscles isolated from pregnant rabbits; test: Oxytocin-induced contractions of isolated uterine muscles of pregnant rabbits (organ bath); format: cell-based, rabbit; settings: oxytocin (1 mU/mL)-induced contractions, pregnant rabbit uterine muscles; for EC50: Oryctolagus cuniculus, read-out: pD2 values (converted)
Description: (§4) Uterine muscles of pregnant rabbits were isolated, and experiments were conducted based on organ-bath method. After specimens of uterine muscles were suspended and oxytocin (1 mU/mL)-induced contractions was stabilized, the test substance, control substance or positive control substance was administered every 10 min, while doses were increased gradually. Efficacy of drugs was evaluated by comparing the sum of uterine contraction for 10 min before and after administration of drugs, defining the former as 100%.

[4] = tested on: uterine muscles isolated from pregnant rabbits; test: Spontaneous contractions of isolated uterine muscles of pregnant rabbits (organ bath); format: cell-based, rabbit; settings: spontaneous contractions, pregnant rabbit uterine muscles; for EC50: Oryctolagus cuniculus, read-out: pD2 values (converted)
Description: as §4, with “spontaneous” for “oxytocin (1 mU/mL)-induced”

[5] = tested on: uterine muscle isolated from pregnant rats; test: Oxytocin-induced contraction of uterine muscle isolated from pregnant rats; format: cell-based, rat; settings: contraction induced with 1 mU/mL of oxytocin, mean ± standard error of 10 samples
Description: as §1, §2, §3

[6] = tested on: uterine activity of anesthetized pregnant rats; test: Uterine motility of anesthetized pregnant rats (balloon method); format: in vivo, rat; settings: uterine motility, intravenous cumulative dosing every 15 minutes, urethane-anesthetized pregnant rats
Description: Rats were anesthetized with urethane, and experiments were conducted based on balloon method. Uterine activity and mean blood pressure of dam were led to a pressure amplifier via a pressure transducer. As for heart rate, pulse waves were led to tachometer. Recti-graphs were used for recording. The test substance, control substance, or positive control substance was administered intravenously and cumulatively every 15 minutes, while doses were increased gradually.

[7] = tested on: uterine muscle isolated from pregnant rats; test: Interaction of MN-221 and β-adrenoceptor antagonists on spontaneous contraction of uterine muscle isolated from pregnant rats (Schild regression); format: cell-based, rat
Description: The experimental operation of this study was as reported by T. Kawarabayashi et al.^4. After each SD-strain rat on Day 21 of pregnancy was exsanguinated to death, the uterus was isolated to prepare 8 myometrial samples (about 4 mm×10 mm) in the direction of the longitudinal muscle, with the adhesion to the placenta being avoided. Each myometrial sample was suspended with a load of about 1.0 g in an organ bath containing 10 mL of the Locke-Ringer solution at 37° C. […] After the suspended samples became stable for the amplitude and frequency of spontaneous contraction, each antagonist or distilled water was added to the bath to pretreat them for about 15 minutes. […] The contractile force of each sample was outputted through a force displacement transducer to a strain pressure amplifier and recorded with a rectigraph.
Any variable point (peak) with amplitude (tension) of 0.2 g or lower was excluded from analysis. Samples meeting any of the following criteria were rejected or removed from analysis.
Microsoft® Excel 2000 (Microsoft Corp.) was used for summing up or calculating data and preparing figures and tables. […] This EC50 value was used to calculate the concentration ratio (CR) of EC50 when an antagonist was added (for each sample) to that when no antagonist was added (mean value of the whole control group) and the logarithmic value of CR-1 (log [CR-1]).
Then, the added concentration of the antagonist was plotted on the X axis (logarithmic value) and log(CR-1) on the Y axis (Schild plot) to calculate the value of the X-axis intercept (pA2) and slope of the line using linear approximation (Schild regression^5). The slope was statistically compared with a slope of 1 (paired t-test; a probability level of less than 5% was considered significant). […] The mean and standard error were calculated for each data point obtained and indicated to two decimal places (or in 3 significant digit).

[8] = Rattus norvegicus, read-out: EC50
[9] = Rattus norvegicus, read-out: pEC50 (converted)

EC50 ([1]; read-out: EC50) [nM] | EC50 [3] [nM] | EC50 [4] [nM] | Compound | ED30 values [6] [µg/kg/min] | pD2 values [3] | pD2 values [4] | further results
39.8 ± 13.3 | 77.6 | 135 | CC(NCCc1ccc(O)cc1)C(O)c1ccc(O)cc1 (racemic) [Ritodrine hydrochloride, (±)-erythro-1-(p-hydroxyphenyl)-2-[2-(p-hydroxyphenyl)ethylamino]-1-propanol hydrochloride] | 51.45 |  |  | EC50 ([1]; read-out: pD2 (converted)): 25.7 nM; EC50 [2, 8]: 3430 ± 720 nM; EC50 [2, 9]: 2630 nM; EC50 [5, 8]: 133 ± 16.8 nM; EC50 [5, 9]: 120 nM
 |  |  | Cn1cc(C(F)(F)F)nc1-c1ccc(OCC(O)CNCCOc2ccc(O)c(C(N)=O)c2)cc1 (stereo not shown) [CGP 20712A, reference compound] |  |  |  | antagonistic effect on the effect of MN-221 ([7]; at a concentration of up to 1×10^−8 mol/L): no evident antagonistic effect
 |  |  | CC(C)(C)NC[C@H](O)c1ccc(O)cc1Cl.O=C(O)C(O)C(O)C(=O)O [HSR-81, meluadrine tartrate] | 0.56 | 8.12 ± 0.21 | 8.21 ± 0.26 | 
 |  |  | CCc1ccccc1OC[C@@H](O)CN[C@H]1CCCc2ccccc21 [SR 59230A, reference compound] |  |  |  | antagonistic effect on the effect of MN-221 ([7]; at a concentration of up to 3×10^−8 mol/L): no evident antagonistic effect
 | 40.7 | 89.1 | CC(C)(C)NCC(O)c1cc(O)cc(O)c1 (stereo not shown) [Terbutaline sulfate, terbutaline sulfate] | 0.72 |  |  | 
0.42 ± 0.1 |  |  | isoproterenol bitartrate |  | 8.53 ± 0.21 | 8.69 ± 0.17 | pD2 [1]: 9.52±0.13; pEC50 [2]: 8.32±0.05; EC50 ([2]; read-out: EC50): 5.1 ± 0.633 nM; pEC50 [5]: 9.27±0.03; EC50 ([5]; read-out: EC50): 0.556 ± 0.0412 nM
